By IC50 is commonly meant the midpoint of a concentration-inhibition curve. A low value points to greater potency in that assay.

Assay [1] has as its target T1, Tyrosine-protein kinase JAK3 (Homo sapiens, UniProt P52333).
T1 sequence (P52333 whole entry): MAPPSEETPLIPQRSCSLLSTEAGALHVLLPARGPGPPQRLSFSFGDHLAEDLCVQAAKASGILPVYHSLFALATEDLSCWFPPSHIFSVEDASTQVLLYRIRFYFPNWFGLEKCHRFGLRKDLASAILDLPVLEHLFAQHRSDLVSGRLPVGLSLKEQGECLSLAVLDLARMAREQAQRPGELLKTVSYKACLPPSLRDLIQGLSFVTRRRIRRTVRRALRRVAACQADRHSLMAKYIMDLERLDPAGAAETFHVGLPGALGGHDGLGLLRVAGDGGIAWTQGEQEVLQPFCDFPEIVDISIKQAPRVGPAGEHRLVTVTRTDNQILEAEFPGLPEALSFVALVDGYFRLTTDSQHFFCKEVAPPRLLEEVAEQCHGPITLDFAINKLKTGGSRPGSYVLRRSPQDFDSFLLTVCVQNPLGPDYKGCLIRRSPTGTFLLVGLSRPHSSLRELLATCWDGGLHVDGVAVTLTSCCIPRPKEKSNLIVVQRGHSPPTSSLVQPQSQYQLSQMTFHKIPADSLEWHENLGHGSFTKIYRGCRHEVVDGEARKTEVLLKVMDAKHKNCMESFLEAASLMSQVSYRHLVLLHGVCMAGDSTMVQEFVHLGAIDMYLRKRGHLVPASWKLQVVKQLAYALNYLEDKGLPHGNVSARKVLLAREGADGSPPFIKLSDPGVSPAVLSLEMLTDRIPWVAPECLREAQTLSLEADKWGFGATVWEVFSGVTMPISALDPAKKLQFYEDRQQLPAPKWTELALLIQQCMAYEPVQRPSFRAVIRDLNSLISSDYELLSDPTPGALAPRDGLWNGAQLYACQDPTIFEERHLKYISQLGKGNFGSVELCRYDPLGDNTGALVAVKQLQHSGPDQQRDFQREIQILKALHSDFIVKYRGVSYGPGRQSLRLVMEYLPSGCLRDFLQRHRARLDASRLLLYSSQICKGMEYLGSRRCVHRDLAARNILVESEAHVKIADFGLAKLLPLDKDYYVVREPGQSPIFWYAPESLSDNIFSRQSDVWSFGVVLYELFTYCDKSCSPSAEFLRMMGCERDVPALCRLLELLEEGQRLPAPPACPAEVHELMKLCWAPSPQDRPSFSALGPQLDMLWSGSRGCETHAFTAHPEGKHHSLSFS
Description: Inhibition of JAK3 (unknown origin) in presence of ATP by radiometric assay

The target of assay [2] is Tyrosine-protein kinase BTK (Homo sapiens, UniProt Q06187). In words: Inhibition of BTK (unknown origin) by trFRET binding assay.
Chain of Tyrosine-protein kinase BTK (Q06187 whole entry): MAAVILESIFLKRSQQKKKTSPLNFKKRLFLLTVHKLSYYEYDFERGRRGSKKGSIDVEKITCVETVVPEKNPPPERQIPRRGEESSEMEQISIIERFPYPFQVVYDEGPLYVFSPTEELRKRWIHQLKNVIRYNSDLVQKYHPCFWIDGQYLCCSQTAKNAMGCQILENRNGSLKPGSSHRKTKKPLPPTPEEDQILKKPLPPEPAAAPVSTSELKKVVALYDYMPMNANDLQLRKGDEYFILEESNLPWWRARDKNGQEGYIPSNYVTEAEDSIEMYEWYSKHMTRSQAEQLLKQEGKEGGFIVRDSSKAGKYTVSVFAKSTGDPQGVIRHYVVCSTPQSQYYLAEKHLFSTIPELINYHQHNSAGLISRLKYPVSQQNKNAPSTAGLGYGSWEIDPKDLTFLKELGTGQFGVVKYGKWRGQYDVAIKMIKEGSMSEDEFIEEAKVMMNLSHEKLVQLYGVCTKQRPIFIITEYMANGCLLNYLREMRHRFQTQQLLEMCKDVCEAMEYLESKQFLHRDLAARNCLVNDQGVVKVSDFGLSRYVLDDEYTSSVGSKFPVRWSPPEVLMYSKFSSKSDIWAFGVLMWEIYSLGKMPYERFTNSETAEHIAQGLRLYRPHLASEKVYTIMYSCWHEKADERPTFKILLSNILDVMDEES
Assay [3] addresses Fibroblast growth factor receptor 1 (Homo sapiens, UniProt P11362). The assay is described as follows: Inhibition of FGFR1 (unknown origin) by trFRET binding assay.
In assay [4] the target is G protein-coupled receptor kinase 5 (Homo sapiens, UniProt P34947). The assay is described as follows: Inhibition of GRK5 (unknown origin) by trFRET binding assay.
Chain of G protein-coupled receptor kinase 5 (P34947 whole entry): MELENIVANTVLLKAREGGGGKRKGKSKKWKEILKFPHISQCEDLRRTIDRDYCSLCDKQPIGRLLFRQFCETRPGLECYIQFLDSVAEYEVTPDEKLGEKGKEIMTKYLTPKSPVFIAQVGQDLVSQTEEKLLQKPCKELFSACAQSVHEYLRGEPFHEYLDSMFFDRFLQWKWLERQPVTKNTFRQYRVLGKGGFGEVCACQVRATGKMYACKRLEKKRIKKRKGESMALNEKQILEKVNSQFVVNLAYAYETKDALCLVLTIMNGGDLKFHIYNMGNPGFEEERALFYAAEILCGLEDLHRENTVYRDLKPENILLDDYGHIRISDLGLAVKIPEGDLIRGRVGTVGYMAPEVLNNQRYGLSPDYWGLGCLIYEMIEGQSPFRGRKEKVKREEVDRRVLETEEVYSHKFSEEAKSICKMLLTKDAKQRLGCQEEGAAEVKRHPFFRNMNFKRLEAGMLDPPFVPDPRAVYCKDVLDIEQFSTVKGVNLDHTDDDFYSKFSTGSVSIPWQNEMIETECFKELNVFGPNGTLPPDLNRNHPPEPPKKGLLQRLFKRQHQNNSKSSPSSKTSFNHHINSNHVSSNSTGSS
In assay [5] the target is T1, Tyrosine-protein kinase JAK3. The assay is described as follows: Inhibition of JAK3 (unknown origin) by trFRET binding assay.
The target in assay [6] is Leukocyte tyrosine kinase receptor (Homo sapiens, UniProt P29376). The assay is described as follows: Inhibition of LTK (unknown origin) by trFRET binding assay.
Assay [7] addresses Mitogen-activated protein kinase kinase kinase kinase 2 (Homo sapiens, UniProt Q12851). In words: Inhibition of MAP4K2 (unknown origin) by trFRET binding assay.
For assay [8], the target named is Proto-oncogene tyrosine-protein kinase receptor Ret (Homo sapiens, UniProt P07949). In words: Inhibition of RET (unknown origin) by trFRET binding assay.
The target of assay [9] is Serine/threonine-protein kinase 33 (Homo sapiens, UniProt Q9BYT3). In words: Inhibition of STK33 (unknown origin) by trFRET binding assay.
Assay [10] has as its target Vascular endothelial growth factor receptor 1 (Homo sapiens, UniProt P17948). The assay is described as follows: Inhibition of FLT1 (unknown origin) by trFRET binding assay.
Assay [11] addresses Tyrosine-protein kinase Fyn (Homo sapiens, UniProt P06241). The assay is described as follows: Inhibition of FYN (unknown origin) by trFRET binding assay.
Assay [12] deals with Vascular endothelial growth factor receptor 2 (Homo sapiens, UniProt P35968). In words: Inhibition of KDR (unknown origin) by trFRET binding assay.
Assay [13] concerns the target Proto-oncogene tyrosine-protein kinase Src (Homo sapiens, UniProt P12931). In words: Inhibition of SRC (unknown origin) by trFRET binding assay.
Assay [14] concerns the target Serine/threonine-protein kinase 16 (Homo sapiens, UniProt O75716). In words: Inhibition of STK16 (unknown origin) by trFRET binding assay.
Assay [15] concerns the target Cytoplasmic tyrosine-protein kinase BMX (Homo sapiens, UniProt P51813). The assay is described as follows: Inhibition of BMX (unknown origin).
The target of assay [16] is Epidermal growth factor receptor (Homo sapiens, UniProt P00533). In words: Inhibition of EGFR (unknown origin).
Chain of Epidermal growth factor receptor (P00533 whole entry): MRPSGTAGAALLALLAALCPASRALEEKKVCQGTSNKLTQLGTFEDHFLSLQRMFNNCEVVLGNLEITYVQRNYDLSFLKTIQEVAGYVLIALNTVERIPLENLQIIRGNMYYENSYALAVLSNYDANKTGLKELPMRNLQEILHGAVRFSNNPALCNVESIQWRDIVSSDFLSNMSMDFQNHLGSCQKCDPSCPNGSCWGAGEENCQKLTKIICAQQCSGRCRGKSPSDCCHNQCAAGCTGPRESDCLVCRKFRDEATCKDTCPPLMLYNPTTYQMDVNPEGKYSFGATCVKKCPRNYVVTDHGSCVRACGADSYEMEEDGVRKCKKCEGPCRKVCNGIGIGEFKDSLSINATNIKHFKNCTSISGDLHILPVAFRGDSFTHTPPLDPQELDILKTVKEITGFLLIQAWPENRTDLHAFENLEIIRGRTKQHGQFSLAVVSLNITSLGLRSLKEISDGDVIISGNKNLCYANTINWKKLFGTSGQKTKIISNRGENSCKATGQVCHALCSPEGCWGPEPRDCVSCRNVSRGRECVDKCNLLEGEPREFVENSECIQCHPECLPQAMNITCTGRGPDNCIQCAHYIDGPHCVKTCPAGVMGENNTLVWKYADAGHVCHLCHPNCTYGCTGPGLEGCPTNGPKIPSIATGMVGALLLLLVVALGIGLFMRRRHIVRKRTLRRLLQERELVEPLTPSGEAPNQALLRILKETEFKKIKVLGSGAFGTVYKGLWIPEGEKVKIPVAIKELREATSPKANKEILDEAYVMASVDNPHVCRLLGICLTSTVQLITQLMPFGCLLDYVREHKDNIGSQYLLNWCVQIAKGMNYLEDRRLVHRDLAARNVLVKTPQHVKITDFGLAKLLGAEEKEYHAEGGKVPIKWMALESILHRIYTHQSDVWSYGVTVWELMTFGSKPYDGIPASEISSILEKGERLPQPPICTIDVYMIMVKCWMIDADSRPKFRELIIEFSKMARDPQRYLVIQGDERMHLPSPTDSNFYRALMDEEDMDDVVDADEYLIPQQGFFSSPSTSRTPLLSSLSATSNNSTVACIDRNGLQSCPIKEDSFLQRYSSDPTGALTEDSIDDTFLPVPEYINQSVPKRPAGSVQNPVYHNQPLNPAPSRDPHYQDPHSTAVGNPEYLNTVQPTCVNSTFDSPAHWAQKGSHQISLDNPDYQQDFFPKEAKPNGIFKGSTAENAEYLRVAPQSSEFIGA
Assay [17] addresses Receptor tyrosine-protein kinase erbB-2 (Homo sapiens, UniProt P04626). In words: Inhibition of ERB-B2 (unknown origin).
For assay [18], the target named is Tyrosine-protein kinase Tec (Homo sapiens, UniProt P42680). The assay is described as follows: Inhibition of TEC (unknown origin).
Assay [19] concerns the target Tyrosine-protein kinase TXK (Homo sapiens, UniProt P42681). In words: Inhibition of TXK (unknown origin).

Chain of Proto-oncogene tyrosine-protein kinase Src (P12931 2-536 limits assumed): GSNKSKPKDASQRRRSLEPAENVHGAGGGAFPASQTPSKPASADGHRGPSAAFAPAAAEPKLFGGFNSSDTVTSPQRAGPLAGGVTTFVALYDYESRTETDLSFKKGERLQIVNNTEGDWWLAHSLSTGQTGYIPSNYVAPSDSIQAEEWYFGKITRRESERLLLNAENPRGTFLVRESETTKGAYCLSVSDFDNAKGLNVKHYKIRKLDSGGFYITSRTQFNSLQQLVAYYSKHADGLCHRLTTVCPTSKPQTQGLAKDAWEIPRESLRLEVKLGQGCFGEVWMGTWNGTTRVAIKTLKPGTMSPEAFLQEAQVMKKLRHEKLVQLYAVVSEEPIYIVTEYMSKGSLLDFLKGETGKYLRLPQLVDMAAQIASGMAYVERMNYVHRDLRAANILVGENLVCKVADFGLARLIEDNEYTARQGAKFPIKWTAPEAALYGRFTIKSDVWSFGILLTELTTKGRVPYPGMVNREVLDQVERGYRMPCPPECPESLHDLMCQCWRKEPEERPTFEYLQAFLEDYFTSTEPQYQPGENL
Chain of Vascular endothelial growth factor receptor 1 (P17948 whole entry): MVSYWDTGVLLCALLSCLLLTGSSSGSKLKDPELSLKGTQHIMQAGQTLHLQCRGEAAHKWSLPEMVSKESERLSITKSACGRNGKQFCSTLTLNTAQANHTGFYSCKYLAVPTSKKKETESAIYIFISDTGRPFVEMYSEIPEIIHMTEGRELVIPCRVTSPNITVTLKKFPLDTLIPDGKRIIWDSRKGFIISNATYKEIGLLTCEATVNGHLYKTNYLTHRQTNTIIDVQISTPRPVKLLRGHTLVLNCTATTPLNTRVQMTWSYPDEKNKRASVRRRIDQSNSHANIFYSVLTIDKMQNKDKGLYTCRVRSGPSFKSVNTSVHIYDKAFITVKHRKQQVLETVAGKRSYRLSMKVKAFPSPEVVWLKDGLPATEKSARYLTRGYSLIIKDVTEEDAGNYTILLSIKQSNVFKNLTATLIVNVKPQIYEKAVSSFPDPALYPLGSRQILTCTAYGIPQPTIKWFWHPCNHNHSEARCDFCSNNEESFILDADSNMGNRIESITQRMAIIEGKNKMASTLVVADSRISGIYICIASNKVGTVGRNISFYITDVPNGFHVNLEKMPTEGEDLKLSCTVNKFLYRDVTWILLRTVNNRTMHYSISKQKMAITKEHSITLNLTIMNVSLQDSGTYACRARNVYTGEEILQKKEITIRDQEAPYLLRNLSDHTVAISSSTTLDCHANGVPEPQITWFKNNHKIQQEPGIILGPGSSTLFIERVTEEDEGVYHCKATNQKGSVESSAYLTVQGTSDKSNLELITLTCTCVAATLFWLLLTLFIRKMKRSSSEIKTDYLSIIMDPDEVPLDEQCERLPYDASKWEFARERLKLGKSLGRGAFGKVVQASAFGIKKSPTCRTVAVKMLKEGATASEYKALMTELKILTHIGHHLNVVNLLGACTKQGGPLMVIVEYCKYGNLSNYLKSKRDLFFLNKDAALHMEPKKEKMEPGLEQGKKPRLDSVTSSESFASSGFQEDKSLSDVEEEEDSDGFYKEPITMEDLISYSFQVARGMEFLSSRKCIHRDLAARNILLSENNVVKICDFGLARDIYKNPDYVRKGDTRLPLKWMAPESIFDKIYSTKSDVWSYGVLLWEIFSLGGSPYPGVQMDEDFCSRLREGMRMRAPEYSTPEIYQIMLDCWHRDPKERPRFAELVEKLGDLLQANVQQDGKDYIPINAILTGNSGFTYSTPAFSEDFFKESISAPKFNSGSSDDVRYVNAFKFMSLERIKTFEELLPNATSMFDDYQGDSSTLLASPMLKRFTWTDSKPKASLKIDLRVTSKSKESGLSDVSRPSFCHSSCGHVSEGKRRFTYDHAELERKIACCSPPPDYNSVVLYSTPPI
Chain of Tyrosine-protein kinase Fyn (P06241 whole entry): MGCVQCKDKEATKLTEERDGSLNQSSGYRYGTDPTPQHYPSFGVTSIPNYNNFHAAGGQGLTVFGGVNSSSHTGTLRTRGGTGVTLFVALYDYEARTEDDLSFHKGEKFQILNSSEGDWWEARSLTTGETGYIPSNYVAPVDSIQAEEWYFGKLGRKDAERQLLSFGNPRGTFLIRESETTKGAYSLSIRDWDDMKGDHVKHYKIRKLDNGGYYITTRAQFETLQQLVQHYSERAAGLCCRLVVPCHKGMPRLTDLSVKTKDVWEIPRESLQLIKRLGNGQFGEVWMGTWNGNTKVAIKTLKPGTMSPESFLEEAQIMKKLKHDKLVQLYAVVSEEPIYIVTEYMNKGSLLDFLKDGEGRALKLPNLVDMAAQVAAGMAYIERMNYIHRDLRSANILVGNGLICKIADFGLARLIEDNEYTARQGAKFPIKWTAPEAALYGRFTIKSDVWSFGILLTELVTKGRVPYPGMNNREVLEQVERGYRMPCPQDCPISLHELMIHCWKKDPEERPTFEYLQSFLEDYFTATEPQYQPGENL

On to `C=CC(=O)Nc1nc2cnc3[nH]ccc3c2n1C`, for which the IC50 was 3 nM in assay [1]; 1250 nM in [2]; 3100 nM in [3]; 9400 nM in assay [4]; 2 nM in [5]; 5600 nM in [6]. Moreover, the IC50 came out at 7400 nM in assay [7], 7800 nM in assay [8] and 7100 nM in assay [9].

`C=CC(=O)Nc1ccc2ncn(-c3cncc(Nc4ccccc4)n3)c2c1`: the IC50 in [1] was 20 nM; in assay [2] it was 640 nM; in assay [5] it was 300 nM; in [10] it was 550 nM; in assay [11], 660 nM; in assay [12] it was 550 nM. In addition, the IC50 in assay [13] is 980 nM; in assay [14], 1000 nM.

With `N#C/C(=C\c1cccc(-c2cccc3[nH]ncc23)c1)C(N)=O`, the IC50 in [15] is 2410 nM; in [16] it was above 10000 nM; in assay [17], 2050 nM; in assay [18], 6930 nM; in assay [19], 1670 nM.

The values above are taken from ChEMBL document CHEMBL5653628, “Selective JAK3 Inhibitors with a Covalent Reversible Binding Mode Targeting a New Induced Fit Binding Pocket” (Cell Chem Biol, 2016).
